Measured values taken from US11072619B2, “Pyrazole[1,5-a] pyrimidine derivatives as kinase JAK inhibitors” (CELON PHARMA S.A., priority 2017, dated 2021).

Tests used:
[1] = test system: TF-1 cells; assay: TF-1 cells viability in vitro in the presence of IL-4 (JAK1/JAK3 activation); format: cell-based; details: Homo sapiens, TF-1; 20 ng/mL IL-4, 72 hours, ATPlite; read-out: JAK1,3 IL4 (EC50, inhibition of viability of TF-1 cells)
Protocol: (§1) Assay for TF-1 Cells Viability In Vitro
(§2) The effects of the activity of the compounds of the invention were tested in vitro using cells viability assay described below.
(§3) Tested compounds were dissolved in 100% DMSO, and obtained stock solutions were serially diluted in OptiMEM medium (Reduced Serum Medium-Thermo Fisher Scientific). TF-1 cells (DSMZ no.: ACC 334) in culture medium (80% RPMI 1640+20% FBS) ad in the presence of 5 ng/mL IL-3 or 20 ng/mL IL-4 were deposited on 96-well plates in the volume of 90 μl per well, 10 thousands of cells per well. To a well of the 96-well plate 10 μL of the prepared 10× stock solutions of the compounds. Cells on 96-well plates were incubated with the compounds for 72 hours at 37° C., 5% CO2. Subsequently, viability of the cells was measured using ATPlite kit (Perkin Elmer). For this purpose, 50 μL of lysis buffer (mammalian cell lysis solution) were added to a well of the 96-well plate and the plate was incubated for 10 minutes at 25° C. in a plate thermo-shaker with orbital stirring at 600 rpm. Then to a well of the 96-well plate 50 μL of substrate (substrate solution) were added and incubated for 15 minutes at in dark, in a plate thermo-shaker with orbital stirring at 600 rpm. After incubation time, luminescence intensity in a well was measured using Victor×Light luminometer (Perkin Elmer, Inc.).
(§4) On the basis of luminescence intensity measurements in well containing tested compounds at various concentrations and in control wells EC50 values were determined. These values were determined with Graph Pad software v. 5.03, by fitting points of the curve using non-linear regression method. Each compound was tested in at least 6 repetitions (6 wells) on two 96-well plates, using at least 3 wells of each control.

[2] = test system: TF-1 cells; assay: TF-1 cells viability in vitro in the presence of IL-3 (JAK2 activation); format: cell-based; details: Homo sapiens, 5 ng/mL IL-3, 72 hours, ATPlite, read-out: JAK2 IL3 (EC50, inhibition of viability of TF-1 cells)
Protocol: as §1, §2
as §3, with “TF-1 cells (DSMZ no.: ACC 334) in culture medium (80% RPMI 1640+20% FBS) ad in the presence of 5 ng/mL IL-3 or 20 ng/mL IL-4 were deposited on 96-well plates in the volume of 90 μl per well, 10 thousands of cells per well.” left out
as §4, with “5.03, by fitting points of the curve using non-linear regression method.” left out

[3] = target: Recombinant kinase JAK3 (Homo sapiens (Human), UniProt P52333); assay: In vitro JAK kinase inhibition assay (ADP-Glo), JAK3; format: biochemical; details: 30 μM ATP, peptide IGF-1Rtide, averaged
Protocol: (§5) In Vitro JAK Kinase Inhibition Assay
(§6) The effects of the compounds of the invention were analysed in vitro using kinase JAK inhibition assay described below.
(§7) Tested compounds were dissolved in 100% DMSO, and obtained stock solutions were serially diluted in the reaction buffer (50 mM Tris pH 7.5, 10 mM MgCl2, 0.25 mM EGTA, 0.1 mM Na3VO4, 0.01% Triton X-100, 2.5 mM DTT). Recombinant kinases JAK1 (ProQinase), JAK2, or JAK3 (Carna Biosciences) were diluted in the dilution buffer (50 mM Tris-HCl pH 7.5, 150 mM NaCl, 10% glycerol, 0.05% Triton X-100, 1 mM DTT) to the final concentration 3 ng/μL (JAK1), 0.1 ng/μL (JAK2), or 0.2 ng/μL (JAK3). 5 μL of obtained solution of the compounds and 5 μL of the solution of respective kinases were added to the well of a 96-well plate. To initiate interaction between tested compounds and an enzyme, the plate was incubated for 10 minutes at 25° C. in a Plate-Thermo-Shaker with orbital stirring at 400 rpm. Wells of a negative control contained all reagents as mentioned above with the exception of tested compounds and kinase, and wells of a positive controls contained all reagents as mentioned above with the exception of tested compounds. Enzymatic reaction was initiated by the addition of 15 μL of the following solution: 5× concentrated reaction buffer (50 mM Tris pH 7.5, 10 mM MgCl2, 0.25 mM EGTA, 0.1 mM Na3VO4, 0.01% Triton X-100, 2.5 mM DTT), water, 30 μM ATP and for particular kinases: JAK1—60 μM peptide IRS-1 (Enzo), JAK2 or JAK3—10 μM peptide IGF-1Rtide (Lipopharm). Then the plate was incubated for 1 hour at 25° C. in a Plate-Thermo-Shaker, with orbital stirring at 400 rpm. Detection of ADP formed in the enzymatic reaction was then performed using ADP-Glo Kinase Assay kit (Promega). For this purpose, to the well of the 96-well plate 25 μL of ADP-Glo Reagent were added, and the plate was incubated for 40 minutes at 25° C. in a Plate-Thermo-Shaker with orbital stirring at 400 rpm. Then to the well of the 96-well plate 50 μL of Kinase Detection Reagent were added and the plate was incubated for 30 minutes at 25° C. in a Plate-Thermo-Shaker with orbital stirring at 400 rpm. After incubation, luminescence intensity was measured using Victor×Light luminometer (Perkin Elmer, Inc.).
as §4, with “luminescence measurement” for “luminescence intensity measurements”, “in wells” for “in well”, “control wells, IC50” for “control wells EC50”
(§8) Averaged results of kinases JAK inhibition activity for selected compounds of the present invention are presented below in Table 1.

[4] = test system: STAT6 protein phosphorylation in TF-1 cells; assay: STAT6 phosphorylation inhibition in vitro in TF-1 cells with IL-4; format: cell-based; details: Homo sapiens, IL-4 20 ng/mL, 1 hour, Western blot densitometry
Protocol: Assay of STAT6 Phosphorylation Inhibition In Vitro
The activity of the compounds of the invention was tested using in vitro assay described below.
Tested compounds were dissolved in 100% DMSO, and obtained stock solutions were serially in OptiMEM medium (Reduced Serum Medium-Thermo Fisher Scientific). TF-1 cells (DSMZ no.: ACC 334) in culture medium (80% RPMI 1640+20% FBS) in the presence of IL-4 at 20 ng/mL were sieved on 12-well plates at 900 μl/well, 700 thousands of cells/well. To a well of the 12-well plate 100 μL of obtained 10× solution of the compounds were added. Cells on 12-well plates were incubated with tested compounds for 1 hour at 37° C., 5% CO2. Subsequently the cells were washed with PBS, lysed in RIPA buffer added with EDTA, proteases and phosphatases inhibitors, and incubated for 5 min on ice. Protein concentration was determined using Pierce BCA Protein Assay Kit (Thermo Fisher Scientific). Protein lysates were separated by electrophoresis (SDS-PAGE) on 8% polyacrylamide gels, then wet-transferred on nitrocellulose membrane and tested proteins were detected in accordance with the instructions of antibody manufacturer.
On the basis of the measurement of chemoluminescence intensity densitometric analysis was performed, results obtained for the cells treated with tested compounds at various concentrations were compared with those obtained for control cells, and IC50 values were determined.
These values were determined with Graph Pad software v. 5.03, by fitting points of the curve using non-linear regression method. Each compound was tested in at least 3 repetitions.

[5] = target: Recombinant kinase JAK1 (Homo sapiens (Human), UniProt P23458); assay: In vitro JAK kinase inhibition assay (ADP-Glo), JAK1; format: biochemical; details: 30 μM ATP, peptide IRS-1, averaged
Protocol: as §5, §6, §7
as §4, with “luminescence measurement” for “luminescence intensity measurements”, “in wells” for “in well”, “control wells, IC50” for “control wells EC50”
as §8

Recombinant kinase JAK3, sequence (P52333 whole entry): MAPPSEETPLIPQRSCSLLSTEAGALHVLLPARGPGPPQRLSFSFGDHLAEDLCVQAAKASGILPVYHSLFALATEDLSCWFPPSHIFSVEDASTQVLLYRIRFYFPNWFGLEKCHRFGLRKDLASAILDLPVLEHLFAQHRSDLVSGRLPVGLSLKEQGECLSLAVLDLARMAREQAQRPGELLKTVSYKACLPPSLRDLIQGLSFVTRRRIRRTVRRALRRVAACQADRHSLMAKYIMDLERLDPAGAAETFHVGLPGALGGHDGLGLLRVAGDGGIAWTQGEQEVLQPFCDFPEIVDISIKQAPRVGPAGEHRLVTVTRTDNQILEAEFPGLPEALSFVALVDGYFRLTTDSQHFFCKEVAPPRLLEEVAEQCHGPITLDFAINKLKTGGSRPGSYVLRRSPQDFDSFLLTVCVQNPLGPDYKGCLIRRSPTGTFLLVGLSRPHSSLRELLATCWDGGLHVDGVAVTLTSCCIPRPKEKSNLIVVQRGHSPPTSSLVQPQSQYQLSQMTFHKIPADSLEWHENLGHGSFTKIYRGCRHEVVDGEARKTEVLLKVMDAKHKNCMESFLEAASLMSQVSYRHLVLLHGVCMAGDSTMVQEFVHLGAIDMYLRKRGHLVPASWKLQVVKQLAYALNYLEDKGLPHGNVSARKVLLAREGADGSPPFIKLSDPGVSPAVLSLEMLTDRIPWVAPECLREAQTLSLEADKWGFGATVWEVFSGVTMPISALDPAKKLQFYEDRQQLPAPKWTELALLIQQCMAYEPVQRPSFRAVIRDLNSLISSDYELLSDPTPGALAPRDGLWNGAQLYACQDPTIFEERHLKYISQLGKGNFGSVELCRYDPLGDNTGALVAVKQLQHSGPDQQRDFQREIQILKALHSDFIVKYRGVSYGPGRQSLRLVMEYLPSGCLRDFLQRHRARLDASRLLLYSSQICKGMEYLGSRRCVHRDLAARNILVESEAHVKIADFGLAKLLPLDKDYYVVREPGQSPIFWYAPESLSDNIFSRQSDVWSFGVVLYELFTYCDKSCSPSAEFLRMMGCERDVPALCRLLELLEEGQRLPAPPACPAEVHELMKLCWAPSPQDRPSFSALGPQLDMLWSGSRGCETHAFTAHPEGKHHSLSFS
Recombinant kinase JAK1, sequence (P23458 whole entry): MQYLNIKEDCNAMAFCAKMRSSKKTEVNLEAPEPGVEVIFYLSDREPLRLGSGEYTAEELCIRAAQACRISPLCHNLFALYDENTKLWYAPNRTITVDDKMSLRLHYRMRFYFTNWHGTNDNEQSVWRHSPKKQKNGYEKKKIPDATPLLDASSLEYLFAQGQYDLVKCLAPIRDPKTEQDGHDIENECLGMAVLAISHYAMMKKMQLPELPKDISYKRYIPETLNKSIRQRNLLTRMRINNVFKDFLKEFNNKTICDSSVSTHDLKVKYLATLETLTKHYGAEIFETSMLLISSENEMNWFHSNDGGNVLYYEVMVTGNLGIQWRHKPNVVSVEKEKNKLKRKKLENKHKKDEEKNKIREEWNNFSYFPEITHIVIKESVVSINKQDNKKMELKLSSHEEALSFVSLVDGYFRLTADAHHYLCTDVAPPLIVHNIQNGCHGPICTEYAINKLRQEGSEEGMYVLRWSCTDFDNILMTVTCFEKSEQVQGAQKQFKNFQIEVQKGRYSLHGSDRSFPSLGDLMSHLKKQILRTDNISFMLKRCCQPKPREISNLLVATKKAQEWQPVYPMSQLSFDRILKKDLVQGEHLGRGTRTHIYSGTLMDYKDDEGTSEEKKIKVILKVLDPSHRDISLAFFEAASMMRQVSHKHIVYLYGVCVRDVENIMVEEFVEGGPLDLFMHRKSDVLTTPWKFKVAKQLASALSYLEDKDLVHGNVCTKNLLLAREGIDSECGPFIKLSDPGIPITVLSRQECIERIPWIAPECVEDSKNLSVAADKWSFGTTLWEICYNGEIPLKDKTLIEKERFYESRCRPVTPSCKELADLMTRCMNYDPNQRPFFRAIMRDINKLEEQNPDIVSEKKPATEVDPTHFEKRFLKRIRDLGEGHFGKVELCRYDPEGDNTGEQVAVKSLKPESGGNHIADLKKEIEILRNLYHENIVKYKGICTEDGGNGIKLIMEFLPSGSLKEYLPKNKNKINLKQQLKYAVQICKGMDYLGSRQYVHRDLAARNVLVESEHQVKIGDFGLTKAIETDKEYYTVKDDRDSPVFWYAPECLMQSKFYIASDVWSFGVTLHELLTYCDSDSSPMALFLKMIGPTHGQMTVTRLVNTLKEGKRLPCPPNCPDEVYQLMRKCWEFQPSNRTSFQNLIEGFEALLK

- IC50 [3]: 0.2 nM
- IC50 [4]: 215 nM
- IC50 [5]: 0.51 nM
SMILES: CC1(C)CN(c2ccc(C#N)nn2)CC[C@H]1Nc1c(C(N)=O)cnc2cc(-c3ccnc(N4CCOCC4)c3)nn12 [Example 13, (R)-7-((1-(6-Cyanopyridazin-3-yl)-3,3-dimethylpiperidin-4-yl)amino)-2-(2-morpholinopyridin-4-yl)pyrazolo[1,5-a]pyrimidine-6-carboxamide]
- IC50 [1]: 202 nM
- IC50 [2]: 1120 nM
